Entries after “also recorded” stand apart in the source; their conditions may differ. Like-named read-outs stand apart in the source and are kept apart here.
Tests used:
L-proline-4-hydroxylase = L-proline-4-hydroxylase (Dactylosporangium salmoneum, UniProt A0ABP5TRQ3); experiment: Substrate omission and addition tests on the enzyme reaction (indispensable compounds, promoters, inhibitors); type: biochemical, Dactylosporangium sp. RH1; settings: for Relative Activity: 80 mM TES pH 7.5, 30° C., 15 minutes, standard reaction mixture = 100; for activity of the enzyme in the presence of the ion, of the original activity: ion at 1 mM
Procedure: The reaction was initiated by addition of the enzyme and continued for 15 minutes at 30° C. The reaction was stopped by heating the reaction mixture at 100° C. for 2 minutes. […] The reaction was stopped by adding 30 μl of 1 N HCl to the reaction mixture, and the precipitates formed were removed therefrom by centrifugation and filtration.
The HPLC for the determination was carried out under the following conditions: […]

[1] = substrate: O=C(O)[C@@H]1CCCN1; experiment: purified protein, by the assay type; settings: other: 80 mM MES buffer (pH 6.5), 4 mM L-ascorbic acid, 2 mM ferrous sulfate
[2] = substrate: O=C(O)CCC(=O)C(=O)O; experiment: purified protein, by the assay type; settings: other: 80 mM MES buffer (pH 6.5), 4 mM L-ascorbic acid, 2 mM ferrous sulfate

## O=C(O)CN(CCN(CC(=O)O)CC(=O)O)CC(=O)O [EDTA, ethylenediaminetetraacetic acid]
L-proline-4-hydroxylase
  inhibition of the enzyme activity/reaction (in words): inhibit the reaction
L-proline-4-hydroxylase; 5 mM EDTA
  activity of the enzyme in the presence of EDTA: no activity of the enzyme was detected
L-proline-4-hydroxylase; component added at 5 mM
  Relative Activity: 0
L-proline-4-hydroxylase; listed as ethylenediaminetetraacetic acid
  inhibition of the enzyme activity/reaction (in words): inhibited

## O=C(O)CCC(=O)C(=O)O [2-ketoglutaric acid]
L-proline-4-hydroxylase
  need of the component for the enzyme reaction (in words): indispensable
L-proline-4-hydroxylase; component not added (omitted)
  Relative Activity: 0

## O=C(O)[C@@H]1CCCN1 [L-proline]
L-proline-4-hydroxylase
  need of the component for the enzyme reaction (in words): indispensable
L-proline-4-hydroxylase; component not added (omitted)
  Relative Activity: 0

## [Cu+2] [Cu^++]
L-proline-4-hydroxylase
  inhibition of the enzyme activity/reaction (in words): inhibit the reaction; also recorded: inhibited
  activity of the enzyme in the presence of the ion, of the original activity: 13%
L-proline-4-hydroxylase; component added at 1 mM
  Relative Activity: 13

## Catalase
L-proline-4-hydroxylase; component not added (omitted)
  Relative Activity: 93

## O=C1O[C@H]([C@@H](O)CO)C(O)=C1O [L-ascorbic acid]
L-proline-4-hydroxylase
  promotion of the enzyme activity/reaction (in words): promotes the reaction
L-proline-4-hydroxylase; component not added (omitted)
  Relative Activity: 51
L-proline-4-hydroxylase; listed as Ascorbic acid
  promotion of the enzyme activity/reaction (in words): promotes the activity of the enzyme
L-proline-4-hydroxylase; listed as L-Ascorbic acid
  promotion of the enzyme activity/reaction (in words): accelerates the activity of the enzyme

## [Zn+2] [Zn^++]
L-proline-4-hydroxylase
  inhibition of the enzyme activity/reaction (in words): inhibit the reaction; also recorded: inhibited
  activity of the enzyme in the presence of the ion, of the original activity: 6%
L-proline-4-hydroxylase; component added at 1 mM
  Relative Activity: 6

## [Fe+2] [Fe^++]
L-proline-4-hydroxylase
  need of the component for the enzyme reaction (in words): indispensable
L-proline-4-hydroxylase; component not added (omitted)
  Relative Activity: 0

B1: L-proline-4-hydroxylase (Dactylosporangium salmoneum) (protein)
chain: MLTPTELKQYREAGYLLIEDGLGPREVDCLRRAAAALYAQDSPDRTLEKDGRTVRAVHGCHRRDPVCRDLVRHPRLLGPAMQILSGDVYVHQFKINAKAPMTGDVWPWHQDYIFWAREDGMDRPHVVNVAVLLDEATHLNGPLLFVPGTHELGLIDVERRAPAGDGDAQWLPQLSADLDYAIDADLLARLTAGRGIESATGPAGSILLFDSRIVHGSGTNMSPHPRGVVLVTYNRTDNALPAQAAPRPEFLAARDATPLVPLPAGFALAQPV
[1]
  Km: 270 µM
[2]
  Km: 550 µM
